{
  "source": "patent US20240182489A1",
  "about": "“New 5,6,7,8-Tetrahydropyrido[4',3':4,5]thieno[2,3-d]pyrimidin-4(3H)-one Derivatives as Sigma Ligands” (ACONDICIONAMIENTO TARRASENSE, priority 2021, published 2024)",
  "data": [
    {"biological_target": "T1, human σ1 receptor (Homo sapiens, UniProt Q99720)", "T1 construct": "expressed in transfected cells; host or cells: HEK-293 (membranes)", "T1 sequence (Q99720 whole entry)": "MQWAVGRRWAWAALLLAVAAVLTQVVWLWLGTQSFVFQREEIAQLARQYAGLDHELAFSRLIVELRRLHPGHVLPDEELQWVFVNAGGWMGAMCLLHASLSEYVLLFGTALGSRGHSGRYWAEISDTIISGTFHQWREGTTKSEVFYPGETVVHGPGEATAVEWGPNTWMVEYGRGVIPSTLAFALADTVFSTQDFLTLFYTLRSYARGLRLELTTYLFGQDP", "assay": "Human σ1 receptor radioligand assay", "type": "binding", "details": "[3H](+)-pentazocine radioligand, transfected HEK-293 membranes", "units": {"Ki": "nM"}, "values": [
      {"smiles": "C[C@H](c1cc(F)cc(C#N)c1)n1cnc2sc3c(c2c1=O)CCNC3", "note": "[Example 30, (R)-3-Fluoro-5-(1-(4-oxo-5,6,7,8-tetrahydropyrido[4′,3′:4,5]thieno[2,3-d]pyrimidin-3(4H)-yl)ethyl)benzonitrile]", "Ki": "< 100"},
      {"smiles": "C[C@@H](c1cc(Cl)ccc1F)n1cnc2sc3c(c2c1=O)CCNC3", "note": "[Example 29, (S)-3-(1-(5-Chloro-2-fluorophenyl)ethyl)-5,6,7,8-tetrahydropyrido[4′,3′:4,5]thieno[2,3-d]pyrimidin-4(3H)-one]", "Ki": "< 500"},
      {"smiles": "C[C@H](c1ccc(F)cc1)n1cnc2sc3c(c2c1=O)CNCC3", "note": "[Example 17, (R)-3-(1-(4-Fluorophenyl)ethyl)-5,6,7,8-tetrahydropyrido[3′,4′:4,5]thieno[2,3-d]pyrimidin-4(3H)-one]", "Ki": "> 500"},
      {"smiles": "Cc1nc(-c2ccc(C(C)n3cnc4sc5c(c4c3=O)CCNC5)cc2)no1", "note": "(centres unmarked) [Example 24, 3-(1-(4-(5-Methyl-1,2,4-oxadiazol-3-yl)phenyl)ethyl)-5,6,7,8-tetrahydropyrido[4′,3′:4,5]thieno[2,3-d]pyrimidin-4(3H)-one]", "Ki": "> 500"},
      {"smiles": "C[C@@H](c1ccc(F)cc1Cl)n1cnc2sc3c(c2c1=O)CCNC3", "note": "[Example 25, (S)-3-(1-(2-Chloro-4-fluorophenyl)ethyl)-5,6,7,8-tetrahydropyrido[4′,3′:4,5]thieno[2,3-d]pyrimidin-4(3H)-one]", "Ki": "< 500"},
      {"smiles": "C[C@H](c1cccc(C#N)c1)n1cnc2sc3c(c2c1=O)CCNC3", "note": "[Example 14, (R)-3-(1-(4-Oxo-5,6,7,8-tetrahydropyrido[4′,3′:4,5]thieno[2,3-d]pyrimidin-3(4H)-yl)ethyl)benzonitrile]", "Ki": "< 100"},
      {"smiles": "C[C@H](c1ccc(F)cc1Cl)n1cnc2sc3c(c2c1=O)CCNC3", "note": "[Example 26, (R)-3-(1-(2-chloro-4-fluorophenyl)ethyl)-5,6,7,8-tetrahydropyrido[4′,3′:4,5]thieno[2,3-d]pyrimidin-4(3H)-one]", "Ki": "> 500"},
      {"smiles": "C[C@H](c1cc(F)cc(Cl)c1)n1cnc2sc3c(c2c1=O)CCNC3", "note": "[Example 28, (R)-3-(1-(3-chloro-5-fluorophenyl)ethyl)-5,6,7,8-tetrahydropyrido[4′,3′:4,5]thieno[2,3-d]pyrimidin-4(3H)-one]", "Ki": "< 100"},
      {"smiles": "C[C@@H](c1ccc(C#N)c(F)c1)n1cnc2sc3c(c2c1=O)CCNC3", "note": "[Example 19, (S)-2-Fluoro-4-(1-(4-oxo-5,6,7,8-tetrahydropyrido[4′,3′:4,5]thieno[2,3-d]pyrimidin-3(4H)-yl)ethyl)benzonitrile]", "Ki": "< 500"},
      {"smiles": "C[C@@H](c1cc(F)cc(Cl)c1)n1cnc2sc3c(c2c1=O)CCNC3", "note": "[Example 27, (S)-3-(1-(3-Chloro-5-fluorophenyl)ethyl)-5,6,7,8-tetrahydropyrido[4′,3′:4,5]thieno[2,3-d]pyrimidin-4(3H)-one]", "Ki": "< 100"},
      {"smiles": "C[C@H](c1ccc(C#N)c(F)c1)n1cnc2sc3c(c2c1=O)CCNC3", "note": "[Example 20, (R)-2-fluoro-4-(1-(4-oxo-5,6,7,8-tetrahydropyrido[4′,3′:4,5]thieno[2,3-d]pyrimidin-3(4H)-yl)ethyl)benzonitrile]", "Ki": "> 500"}
    ]}
  ]
}
